Experimental data reported in US12565489B2, “Heterocyclyl pyrimidines and triazines as novel fungicides” (Bayer Aktiengesellschaft, priority 2020, dated 2026).
Read-outs that look alike come from different tables or passages of the source.

Key:
[1] = system: Colletotrichum lindemuthianum; assay: Colletotrichum lindemuthianum in vitro cell test; type: cell-based; conditions: 144 h, 20 ppm of active ingredient, 6 days incubation, liquid culture, spectrometric measurement of mycelium growth, read-out: efficacy (inhibition of fungal growth)
Procedure: (§1) • Solvent: DMSO • Culture medium: 14.6 g anhydrous D-glucose (VWR), 7.1 g Mycological Peptone (Oxoid), 1.4 g granulated Yeast Extract (Merck), QSP 1 liter • Inoculum: spore suspension Fungicides were solubilized in DMSO and the solution used to prepare the required range of concentrations. […] A spore suspension of C. lindemuthianum was prepared and diluted to the desired spore density. Fungicides were evaluated for their ability to inhibit spores germination and mycelium growth in liquid culture assay. The compounds were added in the desired concentration to the culture medium with spores. After 6 days incubation, fungi-toxicity of compounds was determined by spectrometric measurement of mycelium growth. Inhibition of fungal growth was determined by comparing the absorbance values in wells containing the fungicides with the absorbance in control wells without fungicides.

Botrytis cinerea [2] = assay: Botrytis cinerea in vitro cell test; type: cell-based; conditions: 144 h, 20 ppm of active ingredient, 6 days incubation, liquid culture, spectrometric measurement of mycelium growth, read-out: efficacy (inhibition of fungal growth)
Procedure: (§2) • Solvent: DMSO • Culture medium: 1 g KH2PO4 (VWR), 1 g K2HPO4 (VWR), 0.5 g Urea (VWR), 3 g KNO3 (Prolabo), 10 g saccharose (VWR), 0.5 g MgSO4, 7H2O (Sigma), 0.07 g CaCl2, 2H2O (Prolabo), 0.2 mg MnSO4, H2O (Sigma), 0.6 mg CuSO4, 5H2O (Sigma), 7.9 mg ZnSO4, 7H2O (Sigma), 0.1 mg H3BO3 (Merck), 0.14 mg NaMoO4, 2H2O (Sigma), 2 mg thiamine (Sigma), 0.1 mg biotine (VWR), 4 mg FeSO4, 7H2O (Sigma), QSP 1 liter • Inoculum: spore suspension Fungicides were solubilized in DMSO and the solution used to prepare the required range of concentrations. […] A spore suspension of B. cinerea was prepared and diluted to the desired spore density. Fungicides were evaluated for their ability to inhibit spore germination and mycelium growth in liquid culture assay. The compounds were added in the desired concentration to the culture medium with spores. After 6 days incubation, fungi-toxicity of compounds was determined by spectrometric measurement of mycelium growth. Inhibition of fungal growth was determined by comparing the absorbance values in wells containing the fungicides with the absorbance in control wells without fungicides.

Pyrenophora teres = Pyrenophora teres in vitro cell test; type: cell-based; conditions: 144 h, 20 ppm of active ingredient, 6 days incubation, liquid culture, spectrometric measurement of mycelium growth, read-out: efficacy (inhibition of fungal growth)
Procedure: as §1, with “of P. teres” for “of C. lindemuthianum”, “inhibit spore” for “inhibit spores”

Pyricularia oryzae = assay: microbe, parasite or virus in culture; type: cell-based; conditions: 120 h, read-out: efficacy (inhibition of fungal growth)
[3] = Measurement of Log P values by HPLC on reversed phase columns (EEC directive 79/831 Annex V.A8); type: physicochemical
Procedure: Measurement of Log P values as provided herein was performed according to EEC directive 79/831 Annex V.A8 by HPLC (High Performance Liquid Chromatography) on reversed phase columns with the following methods: • ^[a] Log P value is determined by measurement of LC-UV, in an acidic range, with 0.1% formic acid in water and acetonitrile as eluent (linear gradient from 10% acetonitrile to 95% acetonitrile). • ^[b] Log P value is determined by measurement of LC-UV, in a neutral range, with 0.001 molar ammonium acetate solution in water and acetonitrile as eluent (linear gradient from 10% acetonitrile to 95% acetonitrile). • ^[c] Log P value is determined by measurement of LC-UV, in an acidic range, with 0.1% phosphoric acid and acetonitrile as eluent (linear gradient from 10% acetonitrile to 95% acetonitrile).
If more than one Log P value is available within the same method, all the values are given and separated by “+”.
Calibration was done with straight-chain alkan2-ones (with 3 to 16 carbon atoms) with known Log P values (measurement of Log P values using retention times with linear interpolation between successive alkanones). Lambda-max-values were determined using UV-spectra from 200 nm to 400 nm and the peak values of the chromatographic signals

Alternaria alternata = Alternaria alternata in vitro cell test; type: cell-based; conditions: 120 h, 20 ppm of active ingredient, 5 days incubation, liquid culture, spectrometric measurement of mycelium growth, read-out: efficacy (inhibition of fungal growth)
Procedure: as §1, with “of A. alternata” for “of C. lindemuthianum”, “inhibit spore” for “inhibit spores”, “After 5” for “After 6”

Sphaerotheca fuliginea = assay: In vivo preventive test on Sphaerotheca fuliginea (powdery mildew on cucurbits); conditions: Podosphaera fuliginea, 192 h; 500 ppm of active ingredient; preventive spray on young gherkin plants; evaluated 8 days after inoculation; read-out: efficacy
Procedure: (§3) The active ingredients were made soluble and homogenized in a mixture of Dimethyl sulfoxide/Acetone//Tween®80 and then diluted in water to the desired concentration. The young plants of gherkin were treated by spraying the active ingredient prepared as described above. Control plants were treated only with an aqueous solution of Acetone/Dimethyl sulfoxide/Tween® 80. After 24 hours, the plants were contaminated by spraying the leaves with an aqueous suspension of Sphaerotheca fuliginea spores.

Alternaria brassicae = assay: In vivo preventive test on Alternaria brassicae (leaf spot on radish or cabbage); conditions: 144 h, 500 ppm of active ingredient, preventive spray on young radish or cabbage plants, evaluated 6 days after inoculation, read-out: efficacy
Procedure: as §3, with “radish or cabbage” for “gherkin”, “Alternaria brassicae” for “Sphaerotheca fuliginea”

Botrytis cinerea [4] = assay: In vivo preventive test on Botrytis cinerea (grey mould); conditions: 500 ppm of active ingredient, preventive spray on young gherkin or cabbage plants, evaluated 4 to 5 days after inoculation, read-out: efficacy
Procedure: as §3, with “gherkin or cabbage” for “gherkin”, “Botrytis cinerea” for “Sphaerotheca fuliginea”

[5] = system: Colletotrichum lindemuthianum; assay: In vivo preventive test on Colletotrichum lindemuthianum (leaf spot on bean); conditions: 168 h, 500 ppm of active ingredient, preventive spray on young bean plants, evaluated 7 days after inoculation, read-out: efficacy
Procedure: as §3, with “bean” for “gherkin”, “Colletotrichum lindemuthianum” for “Sphaerotheca fuliginea”

Septoria tritici = Septoria tritici in vitro cell test; type: cell-based; conditions: Zymoseptoria tritici, 168 h; 20 ppm of active ingredient; 7 days incubation; liquid culture, spectrometric measurement of mycelium growth; read-out: efficacy (inhibition of fungal growth)
Procedure: as §2, with “S. tritici” for “B. cinerea”, “After 6 days incubation, fungi-toxicity of compounds was determined by spectrometric measurement of mycelium growth.” left out

SMILES | inhibition at 20 ppm [1] | inhibition at 20 ppm (Botrytis cinerea [2]) | inhibition at 20 ppm (Pyrenophora teres) | inhibition at 20 ppm (Pyricularia oryzae) | chromatographic logP ([3]; LogP) | inhibition at 20 ppm (Alternaria alternata) | pest or weed control at 500 ppm (Sphaerotheca fuliginea) | pest or weed control at 500 ppm (Alternaria brassicae) | pest or weed control at 500 ppm (Botrytis cinerea [4]) | pest or weed control at 500 ppm [5] | inhibition at 20 ppm (Septoria tritici) | chromatographic logP ([3]; method [a]: LC-UV, acidic range, 0.1% formic acid in water and acetonitrile as eluent, read-out: LogP)
Cc1ncc(Oc2cccc(Cl)c2)c(C2=NOC[C@@H](c3ccc4c(c3)OCCO4)N2)n1 (racemic) [Compound I-031] | 90 to 100% | 90 to 100% | 90 to 100% | 90 to 100% | 3.04 | 90 to 100% | – | – | – | – | – | –
Cc1ncc(Oc2cccc(C(F)(F)F)c2)c(C2=NOC[C@@H](Cc3csc(C(F)(F)F)c3)N2)n1 (racemic) [Compound I-015] | 90 to 100% | 90 to 100% | 90 to 100% | – | 4.17 | 70 to 79% | 80 to 89% | 80 to 89% | 70 to 79% | 90 to 100% | – | –
CSc1ncc(Oc2cccc(C(F)(F)F)c2)c(C2=NOC[C@@H](Cc3ccc(C)cc3Cl)N2)n1 (racemic) [Compound I-020] | 90 to 100% | 90 to 100% | 90 to 100% | – | 5.14 | – | 90 to 100% | 90 to 100% | 90 to 100% | – | 70 to 79% | –
Cc1ccc([C@@H]2CON=C(c3nc(C)ncc3Oc3cccc(Cl)c3)N2)c(C)c1 (racemic) [Compound I-034] | 70 to 79% | 90 to 100% | 90 to 100% | – | 3.8 | 90 to 100% | – | – | – | – | – | –
Cc1ncc(Oc2cccc(C(F)(F)F)c2)c(C2=NOC[C@@H](Cc3ccc(OC(F)F)cc3Cl)N2)n1 (racemic) [Compound I-027] | – | 90 to 100% | 90 to 100% | – | 4.15 | 90 to 100% | 90 to 100% | 90 to 100% | 90 to 100% | 90 to 100% | 90 to 100% | –
Cc1ccc(C[C@@H]2CON=C(c3nc(C)ncc3Oc3cccc(OC(F)F)c3)N2)c(C)c1 (racemic) [Compound I-007] | 90 to 100% | 90 to 100% | 90 to 100% | – | 3.94 | 70 to 79% | 90 to 100% | 90 to 100% | 90 to 100% | 90 to 100% | – | –
Cc1ncc(Oc2cccc(Cl)c2)c(C2=NO[C@@H](F)[C@@H](c3ccc(Cl)cc3)N2)n1 (racemic) [Compound I-028] | – | 90 to 100% | 90 to 100% | 90 to 100% | 3.79 | 90 to 100% | – | – | – | – | 90 to 100% | –
Cc1ncc(Oc2cccc(C(F)(F)F)c2)c(C2=NOCC(Cc3ccc(C#C[Si](C)(C)C)cc3C)N2)n1 (racemic) [Compound I-010, trimethyl-[2-[3-methyl-4-[[(5RS)-3-[2-methyl-5-[3-(trifluoro-methyl)phenoxy]pyrimidin-4-yl]-5,6-dihydro-4H-1,2,4-oxadiazin-5-yl]methyl]phenyl]ethynyl]silane] | – | – | – | – | – | – | – | – | – | – | – | 5.79
COc1ccc(C[C@@H]2CON=C(c3nc(C)ncc3Oc3cccc(C(F)(F)F)c3)N2)c(Cl)c1 (racemic) [Compound I-012] | – | 90 to 100% | 90 to 100% | – | 4.08 | – | 90 to 100% | 90 to 100% | 90 to 100% | 90 to 100% | – | –
Cc1ccc(C[C@H](CCl)NC(=O)c2nc(C)ncc2Oc2cccc(Cl)c2F)c(Cl)c1 (racemic) [Compound 10-05] | – | – | – | – | 4.7 | – | – | – | – | – | – | –
C#Cc1cccc(Oc2cnc(C)nc2C(=O)N[C@@H](CON)Cc2ccc(C)cc2C)c1 (racemic) [Compound 4-02] | – | – | – | – | 2.53 | – | – | – | – | – | – | –
Cc1ncc(Oc2cccc(Cl)c2F)c(C(=O)O)n1 [Compound 1-08] | – | – | – | – | 1.91 | – | – | – | – | – | – | –
Cc1ncc(Oc2cccc(Cl)c2)c(C#N)n1 [Compound 16-01] | – | – | – | – | 3.07 | – | – | – | – | – | – | –
